# Experimental data published in ChEMBL document CHEMBL1145876, “New arylpiperazine derivatives with high affinity for alpha1A, D2 and 5-HT2A receptors” (Bioorg Med Chem Lett, 2003).
# Tests used:
# [1] = molecular target: 5-hydroxytryptamine receptor 2A (Rattus norvegicus, UniProt P14842); experiment: Binding affinity towards 5-hydroxytryptamine 2A receptor using [3H]ketanserin
# D(2) dopamine receptor = D(2) dopamine receptor (Rattus norvegicus, UniProt P61169); experiment: Binding affinity towards Dopamine receptor D2 in rat […] using [3H]spiperone; format: tissue-based
# Sequence of D(2) dopamine receptor (P61169 whole entry): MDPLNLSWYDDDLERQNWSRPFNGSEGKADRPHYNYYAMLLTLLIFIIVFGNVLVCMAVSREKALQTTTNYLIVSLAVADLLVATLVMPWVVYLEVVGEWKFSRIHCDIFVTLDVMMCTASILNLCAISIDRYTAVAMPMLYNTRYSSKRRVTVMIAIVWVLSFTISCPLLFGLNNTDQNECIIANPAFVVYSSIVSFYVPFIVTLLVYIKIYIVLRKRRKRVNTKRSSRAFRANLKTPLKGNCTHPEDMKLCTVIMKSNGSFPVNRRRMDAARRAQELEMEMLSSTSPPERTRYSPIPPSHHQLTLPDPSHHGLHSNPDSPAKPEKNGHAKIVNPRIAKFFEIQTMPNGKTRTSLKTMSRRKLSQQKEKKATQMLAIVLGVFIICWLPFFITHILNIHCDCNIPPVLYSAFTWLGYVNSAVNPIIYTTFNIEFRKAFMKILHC
# Sequence of 5-hydroxytryptamine receptor 2A (P14842 whole entry): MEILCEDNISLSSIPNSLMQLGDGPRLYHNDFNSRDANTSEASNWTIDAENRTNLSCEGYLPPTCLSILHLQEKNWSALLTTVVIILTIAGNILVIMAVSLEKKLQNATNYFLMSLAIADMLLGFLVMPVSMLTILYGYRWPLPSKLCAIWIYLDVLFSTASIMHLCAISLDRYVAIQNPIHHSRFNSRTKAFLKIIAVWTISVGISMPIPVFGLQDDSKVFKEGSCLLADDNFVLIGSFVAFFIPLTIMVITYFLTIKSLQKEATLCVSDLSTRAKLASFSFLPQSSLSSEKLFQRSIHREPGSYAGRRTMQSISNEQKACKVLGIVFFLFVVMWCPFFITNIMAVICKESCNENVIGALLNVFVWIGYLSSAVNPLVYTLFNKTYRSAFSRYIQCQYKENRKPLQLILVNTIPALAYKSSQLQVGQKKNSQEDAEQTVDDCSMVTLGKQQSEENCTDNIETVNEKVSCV
SMILES,Ki [1],Ki (D(2) dopamine receptor)
COc1cc(=O)oc2cc(OCCCN3CCN(c4ccccc4)CC3)ccc12,1.95 µM,0.562 µM
COc1ccccc1N1CCN(CCCOc2ccc3c(OC)cc(=O)oc3c2)CC1,3.09 µM,0.0178 µM
Cc1cc(=O)oc2cc(OCCCN3CCN(c4ncccn4)CC3)ccc12,2.34 µM,0.324 µM

# Molecules with a lower Ki [1], results first:
Ki [1],Ki (D(2) dopamine receptor),SMILES
0.138 µM,0.0479 µM,COc1cc(=O)oc2cc(OCCCN3CCN(c4ncccn4)CC3)ccc12
0.174 µM,0.0117 µM,COc1ccccc1N1CCN(CCCOc2ccc3c(C)cc(=O)oc3c2)CC1
0.933 µM,0.0457 µM,Cc1cc(=O)oc2cc(OCCCN3CCN(c4ccccc4)CC3)ccc12
1.07 µM,0.0813 µM,Cc1cc(=O)oc2cc(OCCCN3CCN(c4ccccn4)CC3)ccc12
0.537 µM,0.129 µM,COc1cc(=O)oc2cc(OCCCN3CCN(c4ccccn4)CC3)ccc12
